Earlier results as cited in US9082274B2, “Odor generation alarm and method for informing unusual situation” (priority 2008, dated 2015).
Read-outs that look alike come from different tables or passages of the source.

Experiments:
[1] = orally administered; route not printed in b8
person [2] = details: concentration in air, ppm by amount of substance
person [3] = details: with respect to a person, ppm by amount of substance
mice [4] = details: exposed for four hours
rats = details: exposed for four hours
mice [5] = details: oral
domestic rabbits = details: AIT diluted to 0.1% to 10% with corn oil introduced into the eyes

SMILES | lethal dose (LD50) [1] | effect when entering the eyes (skin, eyes; eye contact) | effect when coming into contact with the skin (skin, eyes; skin contact) | concentration at which a person becomes unable to tolerate the atmosphere / strength of smell (person [2]) | concentration at which a person starts to notice a pungent odor (person [2]) | concentration from which a person recognizes the smell of wasabi (person [2]) | concentration at which a person becomes unable to tolerate the atmosphere / strength of smell (person [2]; listed as allyl isothiocyanate) | no observed effect concentration (person [3]) | lethal inhaled concentration (inhaled LC50) (mice [4]) | lethal inhaled concentration (inhaled LC50) (rats) | orally administered lethal dose (LD50) (mice [5]) | ocular findings after instillation (domestic rabbits) | lachrymatory effect (humans) | acute dermal toxicity LD50 (rabbits) | solubility in water
CS [methyl mercaptan] | 2.4 mg/kg | reddening and pain when entering the eyes | reddening and pain of the skin | – | – | – | – | – | – | – | – | – | – | – | –
C=CCN=C=S [AIT, allyl isothiocyanate] | – | – | – | ≥ 10 ppm | ~1 ppm | around 5 ppm | 10 ppm | 74.3 ppm | 155 ppm | 173 ppm | 310 mg/kg | nothing more than transient edema and conjunctival hyperemia | there is a lachrymatory effect on humans | 88 mg/kg | does not dissolve easily in water
